A short description of data set [1]: Caco-2 apparent passive permeability. The note with it: human, Caco-2, pH 7.4. It counts as in vitro ADME. Background: Caco-2 monolayers are a common model of the intestinal barrier.
The nature of data set [2]: Dose-exposure proportionality in dose-escalating studies. It counts as in vivo, human. The following applies: based on data of ref 20.
Data set [3] can be described thus: Thermodynamic solubility measurement in FaSSIF pH 6.5 and SGF pH 1.6. It is filed as physicochemical. The following applies: 37 °C, thermodynamic from solid.
For data set [4] the following is noted: cited from earlier work.
The conditions of data set [5]: after oral administration; cited from earlier work.
For data set [6] the following is noted: cited from earlier work; for AUC fed/fasted ratio / Cmax fed/fasted ratio: erlotinib 150 mg.
The conditions of data set [7]: ref 36 (dabrafenib), 40 (vemurafenib), 18 (pazopanib); cited from earlier work.
The conditions of data set [8]: BCS II/IV drugs; cited from earlier work.
The mark [9] stands for this setting: single dose, crizotinib 50-300, trametinib 0.125-10, dabrafenib 12-300, gefitinib 50-500 (HV), vemurafenib 240-960, pazopanib 50-2,000 mg.
Setting [10] is: SGF, pH 1.6, simulated gastric fluid.

Values after ≈ are worked out from the molar mass of the structure shown. Where a name gives a salt, the structure may show the parent alone. Read-outs that look alike come from different tables or passages of the source.

In the case of `C[C@@H](Oc1cc(-c2cnn(C3CCNCC3)c2)cnc1N)c1c(Cl)ccc(F)c1Cl` [Crizotinib], in data set [1], the Papp (in general, a coefficient for how fast a substance crosses the barrier) was 15.3 ×10⁻⁶ cm/s. Besides, the “dose proportionality of single-dose PK in the authors' assessment” value in data set [2] is “linear”. Further, the concentration in solution in data set [3] (FaSSIF, pH 6.5, fassif) (solubility at 24 h) was 743 µg/mL (≈ 1650 µM). In data set [4] (setting [9]), the “Increase in exposure (dose-exposure proportionality)” value (“Increase in exposure” for short) is “Less than proportional”.
On to `CC(C)(C)c1nc(-c2cccc(NS(=O)(=O)c3c(F)cccc3F)c2F)c(-c2ccnc(N)n2)s1` [Dabrafenib, Dabrafenib mesylate], for which, in data set [1], the Papp stood at 12.4 ×10⁻⁶ cm/s. Besides, the solubility (commonly how much of the substance goes into solution per volume) at 24 h was 3.7 µg/mL in data set [3] (FaSSIF, pH 6.5, fassif) and 11.7 µg/mL in data set [3] (setting [10]). Also, the “Increase in exposure” value in data set [4] (setting [9]) was “Dose proportional”.
On to `C#Cc1cccc(Nc2ncnc3cc(OCCOC)c(OCCOC)cc23)c1` [Erlotinib, erlotinib HCl], for which, in data set [1], the Papp is 40.4 ×10⁻⁶ cm/s. The solubility at 24 h was 12.4 µg/mL in data set [3] (FaSSIF, pH 6.5, fassif) and 166 µg/mL in data set [3] (setting [10]). The “Increase in exposure” value in data set [4] (dosing schedule N.A., imatinib 25-1,000 mg, erlotinib 100-1,000 mg) is “Dose proportional38”. In addition, the “dose as parent drug in the feces” value in data set [5] is on record as 1 % of the dose. Besides, the results for the AUC fed/fasted ratio in data set [6] (first value (first period)) and in data set [6] (second value (second period)) were 1.97 and 0.93, respectively. The Cmax fed/fasted ratio in data set [6] (first value (first period)) is on record as 1.57; in data set [6] (second value (second period)), 1.15.
For the molecule `COc1cc2ncnc(Nc3ccc(F)c(Cl)c3)c2cc1OCCCN1CCOCC1` [Gefitinib, gefitinib], the Papp in data set [1] was 10.4 ×10⁻⁶ cm/s. Also, in data set [3] (FaSSIF, pH 6.5, fassif), the solubility at 24 h was found to be 88.7 µg/mL (≈ 198 µM). Besides, the “Increase in exposure” value in data set [4] (setting [9]) is “Dose proportional”.
In the case of `CS(=O)(=O)CCNCc1ccc(-c2ccc3ncnc(Nc4ccc(OCc5cccc(F)c5)c(Cl)c4)c3c2)o1` [Lapatinib, lapatinib ditosylate monohydrate], in data set [1], the Papp worked out at 0.21 ×10⁻⁶ cm/s. Moreover, the solubility at 24 h in data set [3] (FaSSIF, pH 6.5, fassif) was 35 µg/mL; in data set [3] (setting [10]) it was 5.5 µg/mL.
For the molecule `Cc1ccc(Nc2nccc(N(C)c3ccc4c(C)n(C)nc4c3)n2)cc1S(N)(=O)=O` [Pazopanib, pazopanib hydrochloride (HCl)], the “pKa values (acidic)” value in data set [7] is 10.218. For the same molecule, in data set [1], the Papp was 28.5 ×10⁻⁶ cm/s. The solubility at 24 h is 1.2 µg/mL in data set [3] (FaSSIF, pH 6.5, fassif) and 1080 µg/mL in data set [3] (setting [10]). For the same molecule, the “Increase in exposure” value in data set [4] (setting [9]) is listed as “Less than proportional Less than proportional18”.
For the molecule `CC(=O)Nc1cccc(-n2c(=O)n(C3CC3)c(=O)c3c(Nc4ccc(I)cc4F)n(C)c(=O)c(C)c32)c1` [Trametinib, trametinib *DMSO solvate], the Papp in data set [1] came out at 15.4 ×10⁻⁶ cm/s. The “Increase in exposure” value in data set [4] (setting [9]) is “More than proportional (Cmax proportional)24”. The food effect result in data set [6] (poorly water-soluble anticancer drugs) is “only a modest food effect, if any”.
Consider `CCCS(=O)(=O)Nc1ccc(F)c(C(=O)c2c[nH]c3ncc(-c4ccc(Cl)cc4)cc23)c1F` [Vemurafenib, vemurafenib], for which the Papp in data set [1] was found to be 0.11 ×10⁻⁶ cm/s. Further, the solubility at 24 h in data set [3] (FaSSIF, pH 6.5, fassif) is 5.4 µg/mL (≈ 11 µM); in data set [3] (setting [10]), 0.3 µg/mL (≈ 0.612 µM). In addition, the “Increase in exposure” value in data set [4] (setting [9]) is “Dose proportional Dose proportional40”.
`O=C1NC(=O)C(c2ccccc2)(c2ccccc2)N1` [phenytoin]: the “absolute bioavailability (F)” value in data set [8] is listed as over 90%.
